This passage reports EC50 and IC50 results from patent US9339503B2, “Tetrahydro-quinazolinone derivatives as TANK and PARP inhibitors” (MERCK PATENT GMBH, priority 2012, dated 2016).

One assay deals with tankyrase 1/2. Description: Measurement of cellular inhibition of tankyrase (Axin2 level, Luminex based assay, DLD1 cells). To be noted: 24 hours, increase of Axin2 level, read-out: EC50 tankyrase 1/2 (cell assay). The protocol: Measurement of Cellular Inhibition of Tankyrase
Since Tankyrases have been described to modulate cellular level of Axin2 (Huang et al., 2009; Nature) the increase of Axin2 level is used as read-out for determination of cellular inhibition of Tankyrases in a Luminex based assay.
Cells of the colon carcinoma cell line DLD1 are plated in 96 well plates with 1.5×10^4 cells per well. Next day, cells are treated with a serial-dilution of test compound in seven steps as triplicates with a final DMSO concentration of 0.3%. After 24 hours, cells are lysed in lysis buffer (20 mM Tris/HCl pH 8.0, 150 mM NaCl, 1% NP40, 10% Glycerol) and lysates are cleared by centrifugation through a 96 well filter plate (0.65 μm). Axin2 protein is isolated from cell lysates by incubation with a monoclonal anti-Axin2 antibody (R&D Systems #MAB6078) that is bound to fluorescent carboxybeads. Then, bound Axin2 is specifically detected with a polyclonal anti-Axin2 antibody (Cell Signaling #2151) and an appropriate PE-fluorescent secondary antibody. The amount of isolated Axin2 protein is determined in a Luminex^200 machine (Luminex Corporation) according to the manufacturer's instruction by counting 100 events per well. […] For analysis, the obtained data were normalized against the untreated solvent control and fitted for determination of the EC50 values using the Assay Explorer software (Accelrys).

Assay [1] deals with T1, GST-tagged Tnks-1 (1023-1327 aa) (Homo sapiens, UniProt O95271).
T1 construct: GST-tagged Tnks-1 (1023-1327 aa, prepared in-house); made in house
T1 sequence (O95271 1023-1327): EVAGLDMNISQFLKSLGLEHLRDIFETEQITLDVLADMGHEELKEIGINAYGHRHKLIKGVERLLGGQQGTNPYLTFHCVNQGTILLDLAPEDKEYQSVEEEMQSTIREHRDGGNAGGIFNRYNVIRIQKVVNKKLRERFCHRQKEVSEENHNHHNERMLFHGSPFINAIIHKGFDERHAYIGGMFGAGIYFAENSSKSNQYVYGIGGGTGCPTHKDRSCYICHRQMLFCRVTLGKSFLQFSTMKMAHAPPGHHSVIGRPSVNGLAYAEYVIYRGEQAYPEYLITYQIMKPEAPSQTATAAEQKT
Nature of the assay: TNKS 1 activity ELISA (autoparsylation assay). In kind it is biochemical. The conditions noted are these: read-out: IC50 tankyrase 1 (ELISA assay). In general terms: In an ELISA, binding on a coated surface is turned into a signal by an enzyme label.

A further assay concerns the target T2, His-tagged Parp-1 (Homo sapiens, UniProt P09874).
T2 construct: purchased Enzo Life Sciences GmbH, Lörrach, Germany
Nature of the assay: PARP-1 autoparsylation assay (HTRF). In kind it is biochemical. The conditions noted are these: read-out: IC50 PARP1. The protocol:
Biochemical Activity Testing of PARP-1: Autoparsylation Assay
The autoparsylation assay was run in two steps: the enzymatic reaction in which His-tagged Parp-1 transferred biotinylated ADP-ribose/ADP-ribose to itself from biotinylated NAD/NAD as co-substrate and the detection reaction where a time resolved FRET between cryptate labelled anti-His antibody bound to the His tag of the enzyme and Xlent® labelled-streptavidin bound the biotin-parsylation residue was analysed. The autoparsylation activity was detectable directly via the increase in HTRF signal.
The autoparsylation assay was performed as 384-well HTRF® (Cisbio, Codolet, France) assay format in Greiner low volume nb 384-well microtiter plates. 35 nM His-tagged Parp-1 (human, recombinant, Enzo Life Sciences GmbH, Lörrach, Germany) and a mixture of 125 nM bio-NAD (Biolog, Life science Inst., Bremen, Germany) and 800 nM NAD as co-substrate were incubated in a total volume of 6 μl (100 mM Tris/HCl, 4 mM Mg-chloride, 0.01% IGEPAL® CA630, 1 mM DTT, 0.5% DMSO, pH 8, 13 ng/μl activated DNA (BPS Bioscience, San Diego, US)) in the absence or presence of the test compound (10 dilution concentrations) for 150 min at 23° C. The reaction was stopped by the addition of 4 μl of the Stop/detection solution (70 nM SA-Xlent® (Cisbio, Codolet, France), 2.5 nM Anti-His-K® (Eu-labelled anti-His, Cisbio, Codolet, France) in 50 mM HEPES, 400 mM KF, 0.1% BSA, 20 mM EDTA, pH 7.0). After 1 h incubation at room temperature the HTRF was measured with an Envision multimode reader (Perkin Elmer LAS Germany GmbH) at excitation wavelength 340 nm (laser mode) and emission wavelengths 615 nm and 665 nm. The ratio of the emission signals was determined. The full value used was the inhibitor-free reaction. The pharmacological zero value used was Olaparib (LClabs, Woburn, US) in a final concentration of 1 μM. The inhibitory values (IC50) were determined using either the program Symyx Assay Explorer® or Condosseo® from GeneData.
On the technique in general: In TR-FRET formats the signal depends on donor and acceptor labels being close together.

Each structure is given as a SMILES string.

T2 sequence (P09874 whole entry): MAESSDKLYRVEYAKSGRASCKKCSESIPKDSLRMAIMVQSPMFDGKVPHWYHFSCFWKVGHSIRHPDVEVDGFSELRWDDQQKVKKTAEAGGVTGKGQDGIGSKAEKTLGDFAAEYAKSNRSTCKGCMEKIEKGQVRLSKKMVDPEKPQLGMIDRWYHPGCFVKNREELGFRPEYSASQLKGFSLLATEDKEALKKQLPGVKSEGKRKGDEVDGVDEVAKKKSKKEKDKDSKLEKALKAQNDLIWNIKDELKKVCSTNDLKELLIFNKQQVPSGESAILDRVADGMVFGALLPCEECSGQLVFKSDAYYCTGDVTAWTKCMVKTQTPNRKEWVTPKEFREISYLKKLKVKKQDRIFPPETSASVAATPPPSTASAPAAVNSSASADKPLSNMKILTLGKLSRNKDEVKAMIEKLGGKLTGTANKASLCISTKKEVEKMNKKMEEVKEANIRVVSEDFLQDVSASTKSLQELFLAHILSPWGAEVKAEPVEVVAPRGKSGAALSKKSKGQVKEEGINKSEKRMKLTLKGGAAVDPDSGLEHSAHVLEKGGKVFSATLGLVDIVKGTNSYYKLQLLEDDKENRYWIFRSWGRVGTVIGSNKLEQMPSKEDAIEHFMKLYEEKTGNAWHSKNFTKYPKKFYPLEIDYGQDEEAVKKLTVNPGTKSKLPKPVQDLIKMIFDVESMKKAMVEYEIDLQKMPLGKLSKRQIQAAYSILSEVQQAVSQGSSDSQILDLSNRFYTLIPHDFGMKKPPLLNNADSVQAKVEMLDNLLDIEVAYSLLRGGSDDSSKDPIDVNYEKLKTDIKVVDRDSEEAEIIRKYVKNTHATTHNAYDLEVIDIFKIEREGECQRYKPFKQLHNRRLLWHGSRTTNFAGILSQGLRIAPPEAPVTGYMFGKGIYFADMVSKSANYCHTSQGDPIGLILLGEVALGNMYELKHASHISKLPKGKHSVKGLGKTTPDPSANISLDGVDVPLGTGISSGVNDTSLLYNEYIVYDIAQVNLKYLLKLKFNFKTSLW

As usually defined, the IC50 is the concentration that inhibits the measured activity by half. On to `COc1cccc(N2CCN(c3nc4c(c(=O)[nH]3)CCCC4)CC2)c1` [Compound A7, 2-[4-(3-Methoxyphenyl)piperazin-1-yl]-5,6,7,8-tetrahydro-3H-quinazolin-4-one], for which the EC50 in the assay on tankyrase 1/2 was 0.3 to 3 µM. In addition, the IC50 in assay [1] is below 0.3 µM; at His-tagged Parp-1 it was 0.3 to 3 µM.

Take `COc1ccccc1N1CCN(c2nc3c(c(=O)[nH]2)CCCC3)CC1` [Compound A12, 2-[4-(2-Methoxyphenyl)piperazin-1-yl]-5,6,7,8-tetrahydro-3H-quinazolin-4-one]: the EC50 with tankyrase 1/2 is 0.3 to 3 µM. Further, the concentration for half-maximal inhibition (IC50) is below 0.3 µM in assay [1] and 0.3 to 3 µM at His-tagged Parp-1.

`O=c1[nH]c(N2CCN(c3ccc(F)cc3)CC2)nc2c1CCCC2` [Compound A6, 2-[4-(4-Fluorophenyl)piperazin-1-yl]-5,6,7,8-tetrahydro-3H-quinazolin-4-one]: in the assay with tankyrase 1/2, the EC50 was 0.3 to 3 µM. For the same compound, the IC50 in assay [1] was below 0.3 µM; on His-tagged Parp-1, 0.3 to 3 µM.

As for `N#Cc1ccccc1N1CCN(c2nc3c(c(=O)[nH]2)CCCC3)CC1` [Compound A33, 2-[4-(4-oxo-5,6,7,8-tetrahydro-3H-quinazolin-2-yl)piperazin-1-yl]benzonitrile], in the assay on tankyrase 1/2, the EC50 is 0.3 to 3 µM. In addition, the IC50 in assay [1] is below 0.3 µM; on His-tagged Parp-1, 0.3 to 3 µM.

For `COc1cc(F)ccc1N1CCN(c2nc3c(c(=O)[nH]2)CCCC3)CC1` [Compound A36, 2-[4-(4-fluoro-2-methoxy-phenyl)piperazin-1-yl]-5,6,7,8-tetrahydro-3H-quinazolin-4-one], the EC50 in the assay with tankyrase 1/2 fell in the range of 0.3 to 3 µM. Besides, the IC50 in assay [1] is below 0.3 µM; at His-tagged Parp-1 it was 0.3 to 3 µM.

In the case of `O=c1[nH]c(N2CCN(c3ccccc3Cl)CC2)nc2c1CCCC2` [Compound A9, 2-[4-(2-Chlorophenyl)piperazin-1-yl]-5,6,7,8-tetrahydro-3H-quinazolin-4-one], the EC50 in the assay with tankyrase 1/2 fell in the range of 0.3 to 3 µM. Further, the figures for the concentration for half-maximal inhibition (IC50) (in assay [1]; on His-tagged Parp-1) were below 0.3 µM and 0.3 to 3 µM, respectively.

With `COc1ccc(N2CCN(c3nc4c(c(=O)[nH]3)CCCC4)CC2)cc1` [Compound A3, 2-[4-(4-methoxy-phenyl)-piperazin-1-yl]-5,6,7,8-tetrahydro-3H-quinazolin-4-one], in the assay with tankyrase 1/2, the EC50 lay within 0.3 to 3 µM. In addition, the concentration for half-maximal inhibition (IC50) (in assay [1]; on His-tagged Parp-1) was below 0.3 µM each time.
